Data reported in ChEMBL document CHEMBL6078713, “Synthesis and mechanistic studies of 4-aminoquinoline-Isatin molecular hybrids and Schiff's bases as promising antimicrobial agents” (Eur J Med Chem, 2025).
In brackets after ≈: the same amount, converted by molar mass. Activity calls are given as the source filed them. The rule behind the calls is not given here.

Key:
Bacillus subtilis [1] = assay: Synergistic antibacterial activity against Bacillus subtilis MTCC 736 assessed as inhibition of bacterial growth incubated overnight in presence of ciprofloxacin by serial dilution based spectrophotometer; assay type: functional
Enterococcus faecalis [2] = assay: Antibacterial activity against Enterococcus faecalis MTCC 439 assessed as diameter of zone of inhibition at 2 times MIC incubated overnight by disk diffusion method; assay type: functional
Pseudomonas aeruginosa [3] = assay: Synergistic antibacterial activity against Pseudomonas aeruginosa MTCC 2453 assessed as fractional inhibitory concentration index incubated overnight in presence of ciprofloxacin by microdilution checkerboard assay; assay type: functional
Staphylococcus aureus [4] = assay: Bacteriostatic activity against Staphylococcus aureus MTCC 902 assessed as lag phase of bacterial growth at 1 times MIC measured upto 24 hrs by absorbance based assay; assay type: functional, organism-based
Bacillus subtilis [5] = assay: Ratio of MBC for antibacterial activity against Bacillus subtilis MTCC 736 to MIC for bactericidal activity against Bacillus subtilis MTCC 736; assay type: functional
Staphylococcus aureus [6] = assay: Antibacterial activity against Staphylococcus aureus MTCC 902 assessed as diameter of zone of inhibition at 500 ug/ml by agar disk diffusion method; assay type: functional; conditions: read-out: DIZ
Escherichia coli [7] = assay: Antibacterial activity against Escherichia coli MTCC 443 assessed as diameter of zone of inhibition at 500 ug/ml by agar disk diffusion method; assay type: functional; conditions: read-out: DIZ
Pseudomonas aeruginosa [8] = assay: Synergistic antibacterial activity against Pseudomonas aeruginosa MTCC 2453 assessed as inhibition of bacterial growth incubated overnight in presence of ciprofloxacin by serial dilution based spectrophotometer; assay type: functional
Bacillus subtilis [9] = assay: Antibacterial activity against Bacillus subtilis MTCC 736 assessed as diameter of zone of inhibition at MIC incubated overnight by disk diffusion method; assay type: functional
Escherichia coli [10] = assay: Antibacterial activity against Escherichia coli MTCC 443 assessed as diameter of zone of inhibition at 2 times MIC incubated overnight by disk diffusion method; assay type: functional
Staphylococcus aureus [11] = assay: Antibacterial activity against Staphylococcus aureus MTCC 902 assessed as diameter of zone of inhibition at 2 times MIC incubated overnight by disk diffusion method; assay type: functional
Pseudomonas aeruginosa [12] = assay: Antibacterial activity against Pseudomonas aeruginosa MTCC 2453 assessed as diameter of zone of inhibition at MIC incubated overnight by disk diffusion method; assay type: functional
Escherichia coli [13] = assay: Bacteriostatic activity against Escherichia coli MTCC 443 assessed as reduction in bacterial growth at 2 times MIC measured upto 10 hrs by absorbance based assay; assay type: functional, organism-based
Pseudomonas aeruginosa [14] = assay: Bactericidal activity against Pseudomonas aeruginosa MTCC 2453 assessed as inhibition of bacterial growth incubated overnight; assay type: functional
Staphylococcus aureus [15] = assay: Bacteriostatic activity against Staphylococcus aureus MTCC 902 assessed as reduction in bacterial growth at 2 times MIC measured upto 10 hrs by absorbance based assay; assay type: functional, organism-based
Escherichia coli [16] = assay: Synergistic antibacterial activity against Escherichia coli MTCC 443 assessed as fractional inhibitory concentration index incubated overnight in presence of ciprofloxacin by microdilution checkerboard assay; assay type: functional
Bacillus subtilis [17] = assay: Bactericidal activity against Bacillus subtilis MTCC 736 assessed as inhibition of bacterial growth incubated overnight; assay type: functional
Bacillus subtilis [18] = assay: Antibacterial activity against Bacillus subtilis MTCC 736 assessed as diameter of zone of inhibition at 0.5 times MIC incubated overnight by disk diffusion method; assay type: functional
Escherichia coli [19] = assay: Antibacterial activity against Escherichia coli MTCC 443 assessed as diameter of zone of inhibition at 0.5 times MIC incubated overnight by disk diffusion method; assay type: functional
Salmonella typhi [20] = assay: Antibacterial activity against Salmonella typhi assessed as diameter of zone of inhibition at 2 times MIC incubated overnight by disk diffusion method; assay type: functional, Salmonella enterica subsp. enterica serovar Typhi
Enterococcus faecalis [21] = assay: Antibacterial activity against Enterococcus faecalis MTCC 439 assessed as diameter of zone of inhibition at MIC incubated overnight by disk diffusion method; assay type: functional
Escherichia coli [22] = assay: Antibacterial activity against Escherichia coli MTCC 443 assessed as inhibition of bacterial growth incubated overnight by serial dilution based spectrophotometer; assay type: functional
Bacillus subtilis [23] = assay: Antibacterial activity against Bacillus subtilis MTCC 736 assessed as diameter of zone of inhibition at 500 ug/ml by agar disk diffusion method; assay type: functional; conditions: read-out: DIZ
Salmonella typhi [24] = assay: Antibacterial activity against Salmonella typhi assessed as diameter of zone of inhibition at MIC incubated overnight by disk diffusion method; assay type: functional, Salmonella enterica subsp. enterica serovar Typhi
Pseudomonas aeruginosa [25] = assay: Antibacterial activity against Pseudomonas aeruginosa MTCC 2453 assessed as inhibition of bacterial growth incubated overnight by serial dilution based spectrophotometer; assay type: functional
Escherichia coli [26] = assay: Bacteriostatic activity against Escherichia coli MTCC 443 assessed as reduction in log phase of bacterial growth at 0.5 to 1 times MIC measured upto 24 hrs by absorbance based assay; assay type: functional, organism-based
Escherichia coli [27] = assay: Synergistic antibacterial activity against Escherichia coli MTCC 443 assessed as inhibition of bacterial growth incubated overnight in presence of ciprofloxacin by serial dilution based spectrophotometer; assay type: functional
Staphylococcus aureus [28] = assay: Antibacterial activity against Staphylococcus aureus MTCC 902 assessed as diameter of zone of inhibition at MIC incubated overnight by disk diffusion method; assay type: functional
Staphylococcus aureus [29] = assay: Antibacterial activity against Staphylococcus aureus MTCC 902 assessed as inhibition of bacterial growth incubated overnight by serial dilution based spectrophotometer; assay type: functional
Pseudomonas aeruginosa [30] = assay: Ratio of MBC for antibacterial activity against Pseudomonas aeruginosa MTCC 2453 to MIC for bactericidal activity against Pseudomonas aeruginosa MTCC 2453; assay type: functional
Bacillus subtilis [31] = assay: Antibacterial activity against Bacillus subtilis MTCC 736 assessed as inhibition of bacterial growth incubated overnight by serial dilution based spectrophotometer; assay type: functional
Pseudomonas aeruginosa [32] = assay: Antibacterial activity against Pseudomonas aeruginosa MTCC 2453 assessed as diameter of zone of inhibition at 500 ug/ml by agar disk diffusion method; assay type: functional; conditions: read-out: DIZ
Pseudomonas aeruginosa [33] = assay: Antibacterial activity against Pseudomonas aeruginosa MTCC 2453 assessed as diameter of zone of inhibition at 2 times MIC incubated overnight by disk diffusion method; assay type: functional
Escherichia coli [34] = assay: Bactericidal activity against Escherichia coli MTCC 443 assessed as inhibition of bacterial growth incubated overnight; assay type: functional
Salmonella typhi [35] = assay: Antibacterial activity against Salmonella typhi assessed as inhibition of bacterial growth incubated overnight by serial dilution based spectrophotometer; assay type: functional, Salmonella enterica subsp. enterica serovar Typhi; conditions: Salmonella enterica
Bacillus subtilis [36] = assay: Synergistic antibacterial activity against Bacillus subtilis MTCC 736 assessed as fractional inhibitory concentration index incubated overnight in presence of ciprofloxacin by microdilution checkerboard assay; assay type: functional
Pseudomonas aeruginosa [37] = assay: Antibacterial activity against Pseudomonas aeruginosa MTCC 2453 assessed as diameter of zone of inhibition at 0.5 times MIC incubated overnight by disk diffusion method; assay type: functional
Enterococcus faecalis [38] = assay: Antibacterial activity against Enterococcus faecalis MTCC 439 assessed as diameter of zone of inhibition at 0.5 times MIC incubated overnight by disk diffusion method; assay type: functional
Escherichia coli [39] = assay: Antibacterial activity against Escherichia coli MTCC 443 assessed as diameter of zone of inhibition at MIC incubated overnight by disk diffusion method; assay type: functional
Bacillus subtilis [40] = assay: Antibacterial activity against Bacillus subtilis MTCC 736 assessed as diameter of zone of inhibition at 2 times MIC incubated overnight by disk diffusion method; assay type: functional
Staphylococcus aureus [41] = assay: Bacteriostatic activity against Staphylococcus aureus MTCC 902 assessed as lag phase of bacterial growth at 0.5 times MIC measured upto 24 hrs by absorbance based assay; assay type: functional, organism-based
Staphylococcus aureus [42] = assay: Antibacterial activity against Staphylococcus aureus MTCC 902 assessed as diameter of zone of inhibition at 0.5 times MIC incubated overnight by disk diffusion method; assay type: functional
Enterococcus faecalis [43] = assay: Antibacterial activity against Enterococcus faecalis MTCC 439 assessed as inhibition of bacterial growth incubated overnight by serial dilution based spectrophotometer; assay type: functional
Enterococcus faecalis [44] = assay: Antibacterial activity against Enterococcus faecalis assessed as inhibition of bacterial growth; assay type: functional

O=C1Nc2cc(Cl)ccc2/C1=N/CCNc1ccnc2cc(Cl)ccc12
MIC (Bacillus subtilis [1]): 64 µg/mL
diameter of the inhibition zone (DIZ) (Enterococcus faecalis [2]): 8 mm
fractional inhibitory concentration index (FICI) (Pseudomonas aeruginosa [3]): 1.25
Activity (Staphylococcus aureus [4]): Active
Ratio (Bacillus subtilis [5]): 1
zone of inhibition at 500 µg/mL (Staphylococcus aureus [6]): 8 mm
zone of inhibition at 500 µg/mL (Escherichia coli [7]): 12 mm
MIC (Pseudomonas aeruginosa [8]): 32 µg/mL
diameter of the inhibition zone (DIZ) (Bacillus subtilis [9]): 11 mm
diameter of the inhibition zone (DIZ) (Escherichia coli [10]): 11 mm
diameter of the inhibition zone (DIZ) (Staphylococcus aureus [11]): 8 mm
diameter of the inhibition zone (DIZ) (Pseudomonas aeruginosa [12]): 9 mm
Activity (Escherichia coli [13]): Active
MBC (Pseudomonas aeruginosa [14]): 256 µg/mL (≈ 664 µM)
Activity (Staphylococcus aureus [15]): Active
fractional inhibitory concentration index (FICI) (Escherichia coli [16]): 0.125
MBC (Bacillus subtilis [17]): 256 µg/mL (≈ 664 µM)
diameter of the inhibition zone (DIZ) (Bacillus subtilis [18]): 8 mm
diameter of the inhibition zone (DIZ) (Escherichia coli [19]): 9 mm
diameter of the inhibition zone (DIZ) (Salmonella typhi [20]): 7 mm
diameter of the inhibition zone (DIZ) (Enterococcus faecalis [21]): 8 mm
MIC (Escherichia coli [22]): 256 µg/mL (≈ 664 µM)
zone of inhibition at 500 µg/mL (Bacillus subtilis [23]): 11 mm
diameter of the inhibition zone (DIZ) (Salmonella typhi [24]): 7 mm
MIC (Pseudomonas aeruginosa [25]): 128 µg/mL (≈ 332 µM)
Activity (Escherichia coli [26]): Active
MIC (Escherichia coli [27]): 16 µg/mL
diameter of the inhibition zone (DIZ) (Staphylococcus aureus [28]): 8 mm
MIC (Staphylococcus aureus [29]): > 512 µg/mL
Ratio (Pseudomonas aeruginosa [30]): 2
MIC (Bacillus subtilis [31]): 256 µg/mL (≈ 664 µM)
zone of inhibition at 500 µg/mL (Pseudomonas aeruginosa [32]): 11 mm
diameter of the inhibition zone (DIZ) (Pseudomonas aeruginosa [33]): 9 mm
MBC (Escherichia coli [34]): > 512 µg/mL
MIC (Salmonella typhi [35]): > 512 µg/mL
fractional inhibitory concentration index (FICI) (Bacillus subtilis [36]): 0.75
diameter of the inhibition zone (DIZ) (Pseudomonas aeruginosa [37]): 8 mm
diameter of the inhibition zone (DIZ) (Enterococcus faecalis [38]): 8 mm
diameter of the inhibition zone (DIZ) (Escherichia coli [39]): 9 mm
diameter of the inhibition zone (DIZ) (Bacillus subtilis [40]): 10 mm
Activity (Staphylococcus aureus [41]): inactive
diameter of the inhibition zone (DIZ) (Staphylococcus aureus [42]): 8 mm
MIC (Enterococcus faecalis [43]): > 512 µg/mL

O=C1Nc2cc(Cl)c(F)cc2/C1=N\NC(=O)c1cc(-c2cccc(Br)c2)n[nH]1
MIC (Enterococcus faecalis [44]): 8 µg/mL (≈ 17.3 µM)
